According to the NIST ThermoML archive (doi:10.1021/je501135p):
Numbers after ± are expanded uncertainties.

Conditions: Liquid, Ebulliometric method (Recirculating still)

O=C1C=CCCC1 [2-cyclohexen-1-one]
vapor or sublimation pressure (444.48 K): 99 ± 1 kPa
vapor or sublimation pressure (444.51 K): 99 ± 1 kPa

OC1CCCCC1 [cyclohexanol]
vapor or sublimation pressure (433.38 K): 99 ± 3 kPa

O=C1CCCCC1 [cyclohexanone]
vapor or sublimation pressure (428.01 K): 99 ± 3 kPa
